{
  "source": "patent US20210322396A1",
  "about": "“COMPOSITIONS WITH SYNERGISTIC PERMEATION ENHANCERS FOR DRUG DELIVERY” (Children's Medical Center Corporation, priority 2018, published 2021)",
  "key": {"physchem": {"assay": "physchem", "details": "water"}, "[1]": {"assay": "Concentration-response curve fitting and isobolographic analysis of CPEs on VCIP48", "assay_type": "in vitro ADME, chinchilla"}, "sodium current": {"target": "sodium current", "details": "read-out: KI, inhibition of sodium current, cited from earlier work"}, "action potentials": {"system": "action potentials", "details": "read-out: median inhibitory concentration, amplitudes of action potentials, cited from earlier work"}, "H. influenza": {"system": "H. influenza", "details": "cited from earlier work"}, "S. pneumoniae": {"system": "S. pneumoniae", "details": "cited from earlier work"}, "[2]": {"details": "three-parameter hyperbolic fit of CPE concentration-VCIP48 curve"}},
  "note": "“And” between values parts separate entries of the source, which are not always exact repeats. Identical values can stand only once. Counter-ions that a name gives are not always drawn. Like-named read-outs stand apart in the source and are kept apart here.",
  "data": [
    {"smiles": "CCCCN1CCCCC1C(=O)Nc1c(C)cccc1C", "note": "(stereo not drawn) [BUP, bupivacaine hydrochloride]", "values": [
      {"measurement": "solubility", "setting": "physchem", "result": "≥ 20", "unit": "mg/mL"},
      {"measurement": "Emax relative to that of LIM", "setting": "[1]", "result": 9.76, "unit": "%"},
      {"measurement": "Emax relative to that of SDS", "setting": "[1]", "result": 6.15, "unit": "%"},
      {"measurement": "CPE concentration at which the permeation enhancement effect plateaued", "setting": "[1]; Cip permeation, CPPB", "result": "~1", "unit": "%"},
      {"measurement": "concentration required to achieve VCIP48=0.22 mg (equivalent dose)", "setting": "[1]; single CPE in CPPB", "result": "infinite"},
      {"measurement": "concentration required to achieve VCIP48=0.24 mg (equivalent dose)", "setting": "[1]; single CPE in CPPB", "result": "infinite"},
      {"measurement": "concentration required to achieve a VCIP48 of 0.4 mg (equivalent dose)", "setting": "[1]; single CPE in CPPB", "result": "infinite"},
      {"measurement": "Emax (maximal VCIP48), derived from Equation (1)", "setting": "[1]; [2]", "result": 0.04, "unit": "mg"},
      {"measurement": "p (Hill coefficient)", "setting": "[1]; [2]", "result": 2.75},
      {"measurement": "soluble concentration", "setting": "in 12%[P407-PBP] solution, weight by volume", "result": "up to 4%"},
      {"measurement": "effect of pH on solubility in water", "setting": "pH of the formulation tuned in the range of 3 to 9", "result": "not affected"}
    ]},
    {"smiles": "CCCCN1CCCCC1C(=O)Nc1c(C)cccc1C", "note": "(stereo not drawn) [BUP-fb, bupivacaine free base]", "values": [
      {"measurement": "solubility limit", "setting": "in pure LIM", "result": "~10", "unit": "%"}
    ]},
    {"smiles": "C=C(C)[C@H]1CC=C(C)CC1", "note": "[LIM, limonene]", "values": [
      {"measurement": "CPE concentration at which the permeation enhancement effect plateaued", "setting": "[1]", "result": "around 4%"},
      {"measurement": "Emax (maximal VCIP48), derived from Equation (1)", "setting": "[1]", "result": 0.41, "unit": "mg"},
      {"measurement": "concentration required to achieve VCIP48=0.22 mg (equivalent dose)", "setting": "[1]", "result": "~1.8", "unit": "%"},
      {"measurement": "concentration required to achieve a VCIP48 of 0.4 mg (equivalent dose)", "setting": "[1]", "result": "~4", "unit": "%"},
      {"measurement": "p (Hill coefficient)", "setting": "[1]", "result": 5.33}
    ]},
    {"smiles": "CCCCCCCCCCCCOS(=O)(=O)[O-].[Na+]", "note": "[SDS, Sodium dodecyl sulfate]", "values": [
      {"measurement": "Emax (peak VCIP48), derived experimentally", "setting": "[1]; experimentally determined peak effect, sulfate", "result": "0.4 mg and 0.40 ^b mg"},
      {"measurement": "concentration required to achieve VCIP48=0.24 mg (equivalent dose)", "setting": "[1]; single CPE in CPPB", "result": 10, "unit": "%"},
      {"measurement": "p (Hill coefficient)", "setting": "[1]; [2]", "result": "0.82 ^"},
      {"measurement": "Emax (maximal VCIP48), derived from Equation (1)", "setting": "[1]; three-parameter hyperbolic fit of CPE concentration-VCIP48 curve, sulfate", "result": "0.65 mg and 0.65 ^a mg"}
    ]},
    {"smiles": "NC1=N[C@H](O)[C@H]2[C@H]3O[C@]4(O)O[C@@H]([C@@H](O)[C@@]2(N1)[C@@H]4O)[C@]3(O)CO", "note": "[TTX, Tetrodotoxin]", "values": [
      {"measurement": "Ki", "setting": "sodium current", "result": "0.001 to 0.002", "unit": "µM"},
      {"measurement": "IC50", "setting": "action potentials", "result": "0.005 to 0.006", "unit": "µM"}
    ]},
    {"smiles": "CCCCN1CCCCC1C(=O)Nc1c(C)cccc1C", "note": "(stereo not drawn) [bupivacaine]", "values": [
      {"measurement": "Ki", "setting": "sodium current; in vitro", "result": 25, "unit": "µM"},
      {"measurement": "IC50", "setting": "action potentials; in vitro", "result": 180, "unit": "µM"}
    ]},
    {"smiles": "O=C(O)c1cn(C2CC2)c2cc(N3CCNCC3)c(F)cc2c1=O", "note": "[ciprofloxacin]", "values": [
      {"measurement": "minimum inhibitory concentration", "setting": "H. influenza", "result": "about 4 μg/mL"},
      {"measurement": "minimum inhibitory concentration", "setting": "S. pneumoniae", "result": "about 4 μg/mL"}
    ]}
  ]
}
